The results in this text go back to patent US20250025451A1, “TREATMENT OF CANCER WITH KDM4 INHIBITORS” (Celgene Corporation, priority 2021, published 2025).

“And” between values parts separate entries of the source, which are not always exact repeats. Identical values can stand only once. Like-named read-outs stand apart in the source and are kept apart here. Some results are limits rather than exact numbers.

For experiment [1], the system named is T016P patient-derived pancreatic cancer organoid model. Put plainly: organoid colony formation assay, T016P. The experiment is classed as cell-based, human. On the procedure: (§1) The IC50 values for Compound 1 inhibition of colony formation and viability were determined for the patient-derived colon cancer organoid models: SU60, T002C, SU62, SU34, SU103, T03SC, and SU106, patient-derived pancreatic cancer organoid models PA016SF, PA0143F, T016P, and T028P, and a patient-derived breast cancer organoid model FS5S3.
(§2) Colony formation and viability assays were performed in multiwell plates seeded with organoids using an in vitro culture system composed of a Matrigel layer, media containing a defined set of growth factors, and co-culture with Wnt3 A-secreting mouse embryonic fibroblasts. Assays were initiated by adding either DMSO as a negative control, or an inhibitor panobinostatat 100×IC50 concentration as a positive control, or serially diluted Compound 1. The cultures were incubated for 168 or 144 hours after which the number of viable organoids in each test well was assessed respectively using one of two detection methods: CTG or staining with calcein-AM followed by imaging and colony counting. Colony count or viability of cells treated with compound 1 was expressed as a percent of the negative control. Aggregated Percent of Control values were plotted against the corresponding Compound 1 concentration and the absolute IC50 value was determined from a non-linear regression curve as the concentration where inhibition was 50% of the control.

Experiment [2] relates to T028P patient-derived pancreatic cancer organoid model. Put plainly: organoid colony formation assay, T028P. The experiment is classed as cell-based, human. On the procedure:
as §1, §2

The test system of experiment [3] is colorectal cancer PDX models. In words: culture-based viability inhibition assay, colorectal cancer PDX models. The experiment is classed as cell-based. The settings on record: for IC50: read-out: IC50 (range over sensitive models); for Sensitive to Compound 1 (models sensitive/tested): sensitive = IC50<1 μM. On the procedure:
A panel of 13 colorectal cancer PDX models and 6 colorectal cancer organoid PDX models were tested for their sensitivity to Compound 1 in culture-based viability inhibition assays. The MSI-H status of the studied colorectal cancer cell lines and their respective mutations of the MMR path genes are shown in FIG. 19.

In experiment [4] the test system is gene expression (PNUTS, ANK1, IBA57, SOWAHD, MF12-AS1, CECR1). In words: RNA-seq analysis of pharmacodynamic biomarkers in diffuse large B-Cell Lymphoma xenografts. The experiment is classed as in vivo. The text has this:
RNA-seq and ChIP-seq analyses were employed to identify potential clinical pharmacodynamic (PD) biomarkers as molecular indicators for monitoring the effects of treatment with Compound 1.
[…] In the ChIP-seq analysis, 65 genes were identified to show direct KDM4C promoter occupancy.

For another experiment, the system named is human cancer cell lines. Put plainly: apoptosis in human cancer cell lines. The experiment is classed as cell-based.
A further experiment has as its system KDM4. Put plainly: biochemical activities (KDM4 inhibition). The following applies: KDM4 isoforms, FIG. 1.
Setting [5] is: MSI colorectal cancer PDX models.
Setting [6] is: MSS colorectal cancer PDX models.
The mark [7] stands for this setting: in vivo at 2.5, 5, 7.5, 15 and 50 mg/kg, dose-dependent.

Turning to `CC(C)c1ccc(N(C)c2ccc3c(c2)OCC[C@H]3CNc2cnccc2C(=O)O)cc1` [Compound 1, 3-({[(4R)-7-{methyl[4-(propan-2-yl)phenyl]amino}-3,4-dihydro-2H-1-benzopyran-4-yl]methyl}amino)pyridine-4-carboxylic acid], the IC50 in experiment [1] (Homo sapiens, T016P pancreatic carcinoma model) was greater than 10 µM; in experiment [1] (T016P human pancreatic carcinoma organoid, 144 hrs, Colony Counts), greater than 10 µM; in experiment [2] (Homo sapiens, T028P pancreatic carcinoma model), greater than 10 µM; in experiment [2] (T028P human pancreatic carcinoma organoid, 144 hrs, Colony Counts) it was greater than 10 µM; in experiment [3] (setting [5]), 0.001 to 0.014 µM; in experiment [3] (setting [6]) it was 0.003 to 0.27 µM. Also, the “Sensitive to Compound 1 (models sensitive/tested)” value is 5 out of 5 and 5/5 in experiment [3] (setting [5]); 4 out of 8 and 4/8 in experiment [3] (setting [6]). The “number of genes up- or downregulated ≥2-fold” value in experiment [4] (RNA-seq, 37.3 mg/kg, diffuse large B-Cell Lymphoma xenografts models) came out at 326. The “change of PNUTS, ANK1, and IBA57 gene expression” value in experiment [4] (setting [7]) is listed as “downregulated”. Besides, the “change of SOWAHD, MF12-AS1, and CECR1 gene expression” value in experiment [4] (setting [7]) is “upregulated”. Moreover, in the experiment with human cancer cell lines, the effect on apoptosis entry is listed as “induces apoptosis”. In the experiment on KDM4, the biochemical activities result is on record as “potent PAN KDM4 inhibitor”.
